# Patent US20170064953A1, “HERBICIDAL COMPOSITIONS CONTAINING 4-AMINO-3-CHLORO-6-(4-CHLORO-2-FLUORO-3-METHOXYPHENYL) PYRIDINE-2-CARBOXYLIC ACID OR A DERIVATIVE THEREOF, A TRIAZOLOPYRIMIDINE SULFONAMIDE HERBICIDE OR A DERIVATIVE THEREOF, AND GLYPHOSATE OR A DERIVATIVE THEREOF” (Dow AgroSciences LLC, priority 2015, published 2017)
# Several values for one entry are separate records, joined by “and”; a condition that tells them apart may be missing. Equal values may be shown once. Where a name gives a salt, the structure may show the parent alone.
# Tests used:
# Assay in all cases: Field trial, postemergence herbicidal activity, foliar applied, visual rating
# Format in all cases: in vivo
# [1] = tested on: Conyza sumatrensis (Guernsey fleabane, ERISU); conditions: 1200 g ai/ha
# Experimental: (§1) Treatments consisted of the methyl ester of 4-amino-3-chloro-6-(4-chloro-2-fluoro-3-methoxyphenyl)pyridine-2-carboxylic acid (Cmpd 1) and diclosulam in combination as GF-3220. […] Glyphosate dimethylammonium salt was applied as various commercial formulations containing 480 grams acid equivalent per liter (g ae/L).
# (§2) Field trials were conducted under standard field conditions. Plot sizes varied from 3-4 meters (m) wide by 5-10 m long. Treatments were applied with small plot backpack sprayers, using pressurized carbon dioxide (CO2) as propellant. Pressure varied from 30-50 pounds per square inch (PSI), with spray tips typically of a Flat Fan type applying water diluent at 100-150 liters per hectare (L/ha). Boom sizes varied from 3-4 m in width. Weed sizes varied, but all treatments were applied as post-emergence treatments to weeds from 2 leaf to 2 tiller growth stages varying from 2-15 inches in height. No additional adjuvant was mixed with the treatments applied in the field.
# (§3) The weed spectrum included, but was not limited to, Commelina benghalensis (hairy wandering Jew, COMBE), Echinochloa crus-galli (barnyardgrass, ECHCG), Euphorbia heterophylla (wild poinsettia, EPHHL), Conyza bonariensis (hairy fleabane, ERIBO), Conyza canadensis (horseweed, ERICA), Conyza sumatrensis (Guernsey fleabane, ERISU) and Ipomoea grandifolia (Corda-de-viola, IAQGR).
# (§4) The values reported are percent (%) control visually rated. The predicted percent (%) weed control was determined using Colby's equation.
# [2] = tested on: Echinochloa crus-galli (barnyardgrass, ECHCG); conditions: 1200 g ai/ha
# Experimental: as §1, §2, §3, §4
# [3] = tested on: Euphorbia heterophylla (wild poinsettia, EPHHL); conditions: 960 g ai/ha
# Experimental: as §1, §2, §3, §4
# [4] = tested on: Conyza bonariensis (hairy fleabane, ERIBO); conditions: 960 g ai/ha
# Experimental: as §1, §2, §3, §4
# [5] = tested on: Commelina benghalensis (hairy wandering Jew, COMBE); conditions: 35DAA, 960 g ai/ha
# Experimental: as §1, §2, §3, §4
# [6] = tested on: Ipomoea grandifolia (Corda-de-viola, IAQGR); conditions: 960 g ai/ha
# Experimental: as §1, §2, §3, §4
# [7] = tested on: Conyza canadensis (horseweed, ERICA); conditions: 1200 g ai/ha
# Experimental: as §1, §2, §3, §4
smiles,measurement,setting,value
"O=C(O)CNCP(=O)(O)O [Glyphosate DMA salt, N-(phosphonomethyl)glycine]",Mean % weed control,[1]; 19DAA,19.0%
same,Mean % weed control,[1]; 29DAA,17.0%
same,Mean % weed control,[1]; 46DAA,15.7%
same,Mean % weed control,[2]; 18DAA,16.7%
same,Mean % weed control,[2]; 38DAA,16.7%
same,Mean % weed control,[3]; 7DAA,38.8%
same,Mean % weed control,[3]; 14DAA,52.5%
same,Mean % weed control,[3]; 28DAA,18.8%
same,Mean % weed control,[3]; 35DAA,7.5%
same,Mean % weed control,[4]; 9DAA,11.7% and 10.0%
same,Mean % weed control,[4]; 12DAA,43.3%
same,Mean % weed control,[4]; 14DAA,40.0% and 36.7% and 23.3%
same,Mean % weed control,[4]; 15DAA,48.3%
same,Mean % weed control,[4]; 23DAA,31.7%
same,Mean % weed control,[4]; 35DAA,25.0%
same,Mean % weed control,[4]; 40DAA,46.7%
same,Mean % weed control,[4]; 54DAA,23.3%
same,Mean % weed control,[4]; 67DAA,20.0%
same,Mean % weed control,[5],62.0%
same,Mean % weed control,[6]; 14DAA,40.0%
same,Mean % weed control,[6]; 19DAA,43.8%
same,Mean % weed control,[6]; 28DAA,45.0%
same,Mean % weed control,[6]; 35DAA,53.8%
same,Mean % weed control,[6]; 42DAA,48.8%
same,Mean % weed control,[7]; 30DAA,28.8%
same,Mean % weed control,[7]; 32DAA,32.5%
same,Mean % weed control,[7]; 46DAA,25.0%
same,Mean % weed control,[7]; 47DAA,28.8%
same,Mean % weed control,[7]; 62DAA,20.0%
